Experimental data published in PubChem BioAssay (NCI).
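The concentration for 50% growth inhibition is given as GI50. TGI: concentration producing complete growth inhibition.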

Legend:
Experiment in all cases: DTP human tumour cell line panel, 384-well format
SNB-19 CNS = test system: SNB-19 CNS
NCI-H460 NSCLC = test system: NCI-H460 NSCLC
786-0 renal = test system: 786-0 renal
MCF7 breast = test system: MCF7 breast
U251 glioblastoma = test system: U251 glioblastoma
NCI/ADR-RES ovarian = test system: NCI/ADR-RES ovarian
MDA-MB-231 breast = test system: MDA-MB-231 breast
SK-OV-3 ovarian = test system: SK-OV-3 ovarian
NCI-H23 lung = test system: NCI-H23 lung
CCRF-CEM leukemia = test system: CCRF-CEM leukemia
HL-60(TB) leukemia = test system: HL-60(TB) leukemia
SK-MEL-2 melanoma = test system: SK-MEL-2 melanoma
DU-145 prostate = test system: DU-145 prostate
BT-549 breast = test system: BT-549 breast
PC-3 prostate = test system: PC-3 prostate
NCI-H522 lung = test system: NCI-H522 lung
RPMI-8226 leukemia = test system: RPMI-8226 leukemia
COLO 205 colon = test system: COLO 205 colon
HS 578T breast = test system: HS 578T breast
SK-MEL-5 melanoma = test system: SK-MEL-5 melanoma
UACC-62 melanoma = test system: UACC-62 melanoma
NCI-H322M lung = test system: NCI-H322M lung
HCT-15 colon = test system: HCT-15 colon
MDA-MB-435 melanoma = test system: MDA-MB-435 melanoma
SK-MEL-28 melanoma = test system: SK-MEL-28 melanoma
SNB-75 CNS = test system: SNB-75 CNS
MDA-MB-468 breast = test system: MDA-MB-468 breast
KM12 colon = test system: KM12 colon
UACC-257 melanoma = test system: UACC-257 melanoma
MALME-3M melanoma = test system: MALME-3M melanoma
HOP-92 NSCLC = test system: HOP-92 NSCLC
SR leukemia = test system: SR leukemia
OVCAR-4 ovarian = test system: OVCAR-4 ovarian
HT29 colon = test system: HT29 colon
MOLT-4 leukemia = test system: MOLT-4 leukemia
OVCAR-8 ovarian = test system: OVCAR-8 ovarian
TK-10 renal = test system: TK-10 renal
T-47D breast = test system: T-47D breast
OVCAR-3 ovarian = test system: OVCAR-3 ovarian
SF-295 CNS = test system: SF-295 CNS
SW-620 colon = test system: SW-620 colon
OVCAR-5 ovarian = test system: OVCAR-5 ovarian
A498 renal = test system: A498 renal
SN12C renal = test system: SN12C renal
NCI-H226 lung = test system: NCI-H226 lung
M14 melanoma = test system: M14 melanoma
HOP-62 NSCLC = test system: HOP-62 NSCLC
RXF 393 renal = test system: RXF 393 renal
IGROV1 ovarian = test system: IGROV1 ovarian
SF-268 CNS = test system: SF-268 CNS
HCC-2998 colon = test system: HCC-2998 colon
EKVX NSCLC = test system: EKVX NSCLC
SF-539 CNS = test system: SF-539 CNS
A549 NSCLC = test system: A549 NSCLC
CAKI-1 renal = test system: CAKI-1 renal
ACHN renal = test system: ACHN renal

CN(C)CCN1C(=O)c2cccc3cc(N)cc(c23)C1=O
GI50 (SNB-19 CNS): 2.16 µM | TGI (SNB-19 CNS): 6.75 µM | GI50 (NCI-H460 NSCLC): 0.791 µM | TGI (NCI-H460 NSCLC): 2.27 µM | GI50 (786-0 renal): 3.13 µM | TGI (786-0 renal): 13.5 µM | GI50 (MCF7 breast): 2.92 µM | TGI (MCF7 breast): 16.3 µM | GI50 (U251 glioblastoma): 2.38 µM | TGI (U251 glioblastoma): 5.62 µM | GI50 (NCI/ADR-RES ovarian): 2.8 µM | TGI (NCI/ADR-RES ovarian): 7.79 µM | GI50 (MDA-MB-231 breast): 2.03 µM | TGI (MDA-MB-231 breast): 5.55 µM | GI50 (SK-OV-3 ovarian): 2.12 µM | TGI (SK-OV-3 ovarian): 6.21 µM | GI50 (NCI-H23 lung): 2.45 µM | TGI (NCI-H23 lung): 5.59 µM | GI50 (CCRF-CEM leukemia): 1 µM | TGI (CCRF-CEM leukemia): 2.19 µM | GI50 (HL-60(TB) leukemia): 1.09 µM | TGI (HL-60(TB) leukemia): 2.35 µM | GI50 (SK-MEL-2 melanoma): 4.1 µM | TGI (SK-MEL-2 melanoma): 6.11 µM | GI50 (DU-145 prostate): 2.28 µM | TGI (DU-145 prostate): 14.2 µM | GI50 (BT-549 breast): 2.87 µM | TGI (BT-549 breast): 7.03 µM | GI50 (PC-3 prostate): 3.49 µM | TGI (PC-3 prostate): 11.3 µM | GI50 (NCI-H522 lung): 1.34 µM | TGI (NCI-H522 lung): 3.03 µM | GI50 (RPMI-8226 leukemia): 1.4 µM | TGI (RPMI-8226 leukemia): 2.82 µM | GI50 (COLO 205 colon): 1.98 µM | TGI (COLO 205 colon): 5.32 µM | GI50 (HS 578T breast): 1.42 µM | TGI (HS 578T breast): 5.1 µM | GI50 (SK-MEL-5 melanoma): 1.96 µM | TGI (SK-MEL-5 melanoma): 3.53 µM | GI50 (UACC-62 melanoma): 1.85 µM | TGI (UACC-62 melanoma): 3.61 µM | GI50 (NCI-H322M lung): 4.51 µM | TGI (NCI-H322M lung): 18.2 µM | GI50 (HCT-15 colon): 2.56 µM | TGI (HCT-15 colon): 8.07 µM | GI50 (MDA-MB-435 melanoma): 3.44 µM | TGI (MDA-MB-435 melanoma): 12 µM | GI50 (SK-MEL-28 melanoma): 4.01 µM | TGI (SK-MEL-28 melanoma): 8.86 µM | GI50 (SNB-75 CNS): 1.35 µM | TGI (SNB-75 CNS): 4.62 µM | GI50 (MDA-MB-468 breast): 1.88 µM | TGI (MDA-MB-468 breast): 4.73 µM | GI50 (KM12 colon): 2.85 µM | TGI (KM12 colon): 14.8 µM | GI50 (UACC-257 melanoma): 2.68 µM | TGI (UACC-257 melanoma): 6.03 µM | GI50 (MALME-3M melanoma): 2.2 µM | TGI (MALME-3M melanoma): 4.92 µM | GI50 (HOP-92 NSCLC): 2.49 µM | TGI (HOP-92 NSCLC): 6.89 µM | GI50 (SR leukemia): 1.38 µM | TGI (SR leukemia): 2.69 µM | GI50 (OVCAR-4 ovarian): 2.62 µM | TGI (OVCAR-4 ovarian): 5.94 µM | GI50 (HT29 colon): 2.5 µM | TGI (HT29 colon): 6.43 µM | GI50 (MOLT-4 leukemia): 0.242 µM | TGI (MOLT-4 leukemia): 0.572 µM | GI50 (OVCAR-8 ovarian): 1.8 µM | TGI (OVCAR-8 ovarian): 3.63 µM | GI50 (TK-10 renal): 2.34 µM | TGI (TK-10 renal): 7.61 µM | GI50 (T-47D breast): 2.73 µM | TGI (T-47D breast): 6.62 µM | GI50 (OVCAR-3 ovarian): 4.01 µM | TGI (OVCAR-3 ovarian): 14 µM | GI50 (SF-295 CNS): 2.77 µM | TGI (SF-295 CNS): 12.1 µM | GI50 (SW-620 colon): 3.12 µM | TGI (SW-620 colon): 12.1 µM | GI50 (OVCAR-5 ovarian): 2.46 µM | TGI (OVCAR-5 ovarian): 6.66 µM | GI50 (A498 renal): 1.26 µM | TGI (A498 renal): 4.62 µM | GI50 (SN12C renal): 2.53 µM | TGI (SN12C renal): 11.4 µM | GI50 (NCI-H226 lung): 2.02 µM | TGI (NCI-H226 lung): 4.05 µM | GI50 (M14 melanoma): 2.72 µM | TGI (M14 melanoma): 7.79 µM | GI50 (HOP-62 NSCLC): 1.5 µM | TGI (HOP-62 NSCLC): 3.65 µM | GI50 (RXF 393 renal): 2.47 µM | TGI (RXF 393 renal): 6.06 µM | GI50 (IGROV1 ovarian): 3.07 µM | TGI (IGROV1 ovarian): 16.5 µM | GI50 (SF-268 CNS): 3.06 µM | TGI (SF-268 CNS): 8.24 µM | GI50 (HCC-2998 colon): 2.01 µM | TGI (HCC-2998 colon): 5.47 µM | GI50 (EKVX NSCLC): 4.87 µM | TGI (EKVX NSCLC): 19.6 µM | GI50 (SF-539 CNS): 2.22 µM | TGI (SF-539 CNS): 6.64 µM | GI50 (A549 NSCLC): 1.17 µM | TGI (A549 NSCLC): 3.64 µM | GI50 (CAKI-1 renal): 2.2 µM | TGI (CAKI-1 renal): 6.36 µM | GI50 (ACHN renal): 2.31 µM | TGI (ACHN renal): 4.44 µM
